{
  "source": "paper PMC3679022",
  "about": "“A Cancer Specific Cell-Penetrating Peptide, BR2, for the Efficient Delivery of an scFv into Cancer Cells” (PLoS ONE, 2013)",
  "key": {"[1]": {"tested_on": "HCT116 cells (K-ras mutated cells)", "assay": "Cell proliferation assay (MTT)", "type": "cell-based, human", "set-up": "dose or concentration left out as unconfirmed", "details": "same concentrations as fusion proteins (Fig. S4:), 24 h", "method": "To assess the anti-proliferative activity of peptides and anti-Ras scFv fusion proteins, HCT116 cells (K-ras mutated cells) were seeded in 96-well plates at a density of 2×10^4 cells/well in 100 µL of DMEM supplemented with 10% FBS and cultured for 24 h at 37°C. […] Cell viability was measured with the 3-(4,5-dimethylthiazol-2-yl)-2,5-diphenyl tetrazolium bromide (MTT) assay using the CellTiter 96® Non-radioactive Cell Proliferation assay kit (Promega, Madison, WI) according to the manufacturer’s instructions. The absorbance of the solution was measured at 570 nm using a Microplate Reader (Bio-Rad). Cell viability was expressed as the percentage of viable cells treated with scFv or peptide-scFv fusion proteins compared to the PBS-treated control (100%). All experiments were done in triplicate.\nFigure 4 Intracellular uptake of peptides and anti-Ras scFv fusion proteins and their anti-proliferative activity. […] (B) Protein uptake was analyzed by Western blotting of fractionated lysates from HCT116 cells treated with PBS, anti-Ras scFv, BR2- or Tat-scFv fusion protein (each, 2 µM) at 37°C for 2 h. […] Cell proliferation was determined using the MTT assay. […]\nHCT116 cells were seeded in 96-well plates at a density of 2×10^4 cells/well in 100 μl of DMEM supplemented with 10% FBS and cultured for 24 h at 37°C. […] The absorbance of the solution was measured at 570 nm using a Microplate Reader (Bio-Rad). […]"}, "HeLa cells": {"tested_on": "HeLa cells", "type": "cell-based, human", "details": "FACS", "method": "To evaluate the internalization of FITC-labeled peptides, HeLa cells were seeded onto 12-well plates at a density of 2×10^5 cells per well and incubated for 24 h. FITC-labeled peptides, at various concentrations ranging from […], were then incubated with the cells for 30 min at 37°C. To compare the cellular uptake of peptides, cancer and normal cells were treated with FITC-labeled peptides (each, 10 µM) and incubated for 30 min at 37°C. Following the incubation, cells were washed three times with ice-cold PBS to remove excess extracellular complexes. Next, the cells were treated with trypsin (1 mg/ml) for 10 min to remove any remaining peptides bound to the cell surface. After trypsinization, the cells were collected by centrifugation (1,000×g for 5 min), resuspended with 500 µl ice-cold 2% FBS/PBS containing propidium iodide (PI), and then immediately analyzed (10,000 events/sample) by fluorescence activated cell sorting (FACS).\nTo understand further the cell-penetrating mechanism of peptides, the effects of temperature and metabolic inhibitors were examined. To elucidate the temperature dependency, HeLa cells were incubated at 4°C for 30 min prior to the addition of the peptides. Next, cells were treated with FITC-labeled peptides (each, 5 µM) at 4°C for 30 min. For the energy-depletion study, HeLa cells were preincubated with sodium azide (NaN3, 10 mM) at 37°C for 1 h and then incubated with FITC-labeled peptides (each, 5 µM) at 37°C for 30 min.\nTo study the role of endocytosis in peptide uptake, cells were pretreated with several endocytosis inhibitors at 37°C for 1 h: (i) amiloride (5 mM), which is known to block macropinocytosis by inhibiting a sodium channel; (ii) nocodazole (100 ng/ml), which inhibits the clathrin-mediated pathway; and (iii) methyl-ß-cyclodextrin (MßCD, 5 mM), which inhibits lipid raft-mediated processes by depleting cholesterol from the plasma membrane. All inhibitors were purchased from Sigma (St. Louis, MO).\nTo examine the effects of negatively charged components on the cell surface for peptide internalization, HeLa cells were pretreated with gangliosides (monosialoganglioside GM3 from canine blood), heparin sulfate, or sialic acid (Neu5Ac, all from Sigma) (20 µg/ml) for 30 min. For the inhibition of ganglioside biosynthesis, cells were pretreated with D-threo-1-phenyl-2-hexadecanoyl amino-3-morpholino-1-propanol (PPMP, 5 µM) for 48 h.\nFor all of these experimental conditions, flow cytometry analyses were performed with live cells using a Becton Dickinson FACSCalibur flow cytometer (BD Biosciences, San Diego, CA). In each case, the fluorescence of 10,000 viable cells was acquired. Viable cells were gated based on a sideward and forward scatter. For data analysis, WinMDI software (Joe Trotter, Scripps Research Institute, La Jolla, CA) was used. The statistical significance was evaluated by Student’s t-test at a 95% confidence interval.\nFigure 2 BR2 specifically penetrates cancer cell membranes in a concentration-dependent manner. (A) Analysis of the cell-penetrating efficiency of each peptide in different cell types by flow cytometry. FITC-labeled Tat, BR1 and BR2 peptides (10 µM) were added to different cell types: HeLa, HCT116 and B16/F10 cancer cells and HaCat, BJ and NIH 3T3 normal cells. After 30 min of incubation at 37°C, the FITC-positive cells were counted by flow cytometry. Values represent the percentage of fluorescence-positive cells in the total cell population. (B) Quantitative assessment of cell penetration of each peptide by flow cytometry. HeLa cells were incubated with FITC-labeled peptides at concentrations of 1, 2, 5, or 10 µM for 30 min at 37°C. Afterwards the cells were washed with cold PBS and harvested and cellular fluorescence was analyzed by flow cytometry. […] Prior to analysis, extracellular fluorescence of surface bound peptides was removed by a trypsin treatment (1 mg/ml for 10 min). […]"}, "human erythrocytes": {"tested_on": "human erythrocytes", "type": "cell-based", "details": "25 µM, pH 7.4", "method": "Hemolytic activity was assayed as described by Aboudy et al. with slight modifications; 3 ml of freshly prepared human erythrocytes was washed with isotonic PBS, pH 7.4, until the color of the supernatant turned clear. The washed erythrocytes were then diluted to a final volume of 20 ml with the same buffer. Peptide samples (10 µl), serially diluted in PBS, were added to 190 µl of the cell suspension in microcentrifuge tubes. Following gentle mixing, the tubes were incubated at 37°C for 30 min and then centrifuged at 4,000×g for 5 min. The supernatant (100 µl) was removed to a new tube and the absorbance at 567 nm was determined. The relative optical density, as compared with that of the cell suspension treated with 0.2% Triton X-100, was defined as percentage of hemolysis. The hemolysis percentage was calculated using the following equation: percentage hemolysis = [(Abs 567 nm in the peptide solution – Abs 567 nm in PBS)/(Abs 567 nm in 0.2% Triton X-100 – Abs 567 nm in PBS)]×100.\n(§1) (B,C) In vitro cytotoxicity of peptides."}, "[2]": {"tested_on": "cancer cells (HeLa, HCT116 and B16/F10)", "assay": "Confocal laser scanning microscopy of FITC-labeled peptide uptake, cancer cells", "type": "cell-based, human, mouse", "details": "FITC-labeled peptide 5 µM, 30 min, 37°C, live unfixed cells", "method": "(§2) To investigate the cell-penetrating ability and the intracellular distribution of the internalized peptides, live confocal microscopy was performed on three cancer lines (HeLa, HCT116 and B16/F10) and three normal cell lines (HaCat, BJ and NIH 3T3). Briefly, cells (2×10^5) were plated on a glass coverslip placed in a 6-well plate, grown overnight, and then incubated with FITC-labeled peptides (5 µM for each cell line) for 30 min. The cells were then rinsed three times with phosphate buffered saline (PBS, pH 7.4), and mounted on microscope slides with fluorescence mounting solution (Dako Corp, Carpinteria, CA). Colocalization of BR2 with lysosomes was observed by using LysoTracker Red DND-99 (Molecular Probe, Eugene, OR). To avoid the effects of fixation artifacts, involving both methanol and paraformaldehyde, cells were not fixed, [27]. The distribution of FITC-labeled peptides was analyzed using a confocal scanning laser Zeiss LSM 510 microscope (Jena, Germany) equipped with a 40× and 20× objective. Fluorophores were excited with an argon laser (488 nm) for FITC and a HeNe laser (543 nm) for LysoTracker Red.\nas §1"}, "[3]": {"tested_on": "normal cells (HaCat, BJ and NIH 3T3)", "assay": "Confocal laser scanning microscopy of FITC-labeled peptide uptake, normal cells", "type": "cell-based, human, mouse", "details": "FITC-labeled peptide 5 µM, 30 min, 37°C, live unfixed cells", "method": "as §2, §1"}},
  "note": "Residues, ends and D or L forms follow the SMILES beside them.",
  "data": [
    {"molecule": "RKKRRQRRR [Tat, well-known CPP Tat (49–57), reference compound]", "values": [
      {"measurement": "anti-proliferative activity of peptide alone", "setting": "[1]", "value": "did not show any detectable inhibitions"},
      {"measurement": "decrease of cellular uptake at 4°C compared to 37°C", "setting": "HeLa cells; FITC-labeled peptide 5 µM, 30 min at 4°C after preincubation at 4°C", "value": 31.6, "unit": "%"},
      {"measurement": "reduction of uptake by ATP depletion (sodium azide)", "setting": "HeLa cells; NaN3 10 mM preincubation 1 h 37°C, then FITC-labeled peptide 5 µM 30 min 37°C", "value": 42.5, "unit": "%"},
      {"measurement": "effect of ganglioside synthesis inhibitor PPMP on peptide uptake", "setting": "HeLa cells; PPMP 5 µM pretreatment 48 h", "value": "not"},
      {"measurement": "effect of exogenous gangliosides on peptide penetration", "setting": "HeLa cells; gangliosides (GM3) 20 µg/ml, 30 min", "value": "not affected"},
      {"measurement": "effect of exogenous heparin on peptide uptake", "setting": "HeLa cells; heparin 20 µg/ml, 30 min", "value": "severely reduced"},
      {"measurement": "effect of exogenous sialic acids on peptide penetration", "setting": "HeLa cells; sialic acid (Neu5Ac) 20 µg/ml, 30 min", "value": "not affected"}
    ]},
    {"molecule": "CC(C)C[C@H](NC(=O)CNC(=O)[C@H](C)NC(=O)[C@@H](N)CCCNC(=N)N)C(=O)N[C@@H](CCC(N)=O)C(=O)N[C@@H](Cc1ccccc1)C(=O)N1CCC[C@H]1C(=O)N[C@H](C(=O)NCC(=O)N[C@@H](CCCNC(=N)N)C(=O)N[C@@H](CC(C)C)C(=O)N[C@@H](CC(C)C)C(=O)N[C@@H](CCCNC(=N)N)C(=O)N[C@@H](CCCNC(=N)N)C(=O)N[C@@H](CC(C)C)C(=O)N[C@@H](CC(C)C)C(=O)N[C@@H](CCCNC(=N)N)C(=O)N[C@@H](CCCNC(=N)N)C(=O)N[C@@H](CC(C)C)C(=O)N[C@@H](CC(C)C)C(=O)N[C@@H](CCCNC(=N)N)C(=O)O)C(C)C", "note": "[BR3, buforin IIb] (H-RAGLQFPVGRLLRRLLRRLLR-OH)", "values": [
      {"measurement": "hemolysis", "setting": "human erythrocytes", "value": "≥ 5", "unit": "%"}
    ]},
    {"molecule": "RAGLQFPVGRLLR [BR1]", "values": [
      {"measurement": "cellular uptake (confocal microscopy)", "setting": "[2]", "value": "negligible cellular uptake levels"},
      {"measurement": "cellular uptake (confocal microscopy)", "setting": "[3]", "value": "negligible cellular uptake levels"}
    ]}
  ]
}
